Source: the NIST ThermoML archive (doi:10.1016/j.fluid.2005.11.013)

Experiment: wn = mass fraction of the nth substance listed
Details: Liquid; for mass density: Other PVT measurement; for viscosity: 17000 kPa, high pressure falling cylinger viscometer

CC(=O)OC[C@H]1O[C@@H](OC(C)=O)[C@H](OC(C)=O)[C@@H](OC(C)=O)[C@H]1OC(C)=O [β-D-galactose pentaacetate] + O=C=O
mass density [kg/m3]
Details | w1 = 0.206 | w1 = 0.259
308 K, 10600 kPa | 930 | 990
308 K, 11000 kPa | – | 1000
308 K, 11400 kPa | 940 | –
308 K, 11700 kPa | – | 1010
308 K, 12300 kPa | 950 | –
308 K, 12400 kPa | – | 1020
308 K, 13300 kPa | – | 1030
308 K, 13700 kPa | 960 | –
308 K, 14900 kPa | – | 1040
308 K, 15000 kPa | 970 | –
308 K, 15500 kPa | 970 | –
308 K, 17100 kPa | – | 1060
313 K, 11900 kPa | – | 970
313 K, 12100 kPa | 940 | –
313 K, 12600 kPa | – | 980
313 K, 12700 kPa | 940 | –
313 K, 13300 kPa | – | 980
313 K, 13600 kPa | 950 | –
313 K, 14200 kPa | – | 990
313 K, 15100 kPa | 960 | 1000
313 K, 15800 kPa | – | 1010
313 K, 16200 kPa | 970 | –
313 K, 17300 kPa | – | 1020
313 K, 17500 kPa | 980 | –
313 K, 18500 kPa | 980 | –
313 K, 19400 kPa | 980 | –
313 K, 19800 kPa | – | 1040
318 K, 14400 kPa | 930 | –
318 K, 15100 kPa | 940 | –
318 K, 15900 kPa | 940 | –
318 K, 16700 kPa | 950 | –
318 K, 17900 kPa | 960 | –
318 K, 20300 kPa | 970 | –
323 K, 15500 kPa | 930 | –
323 K, 16000 kPa | 940 | –
323 K, 16600 kPa | 940 | –
323 K, 17700 kPa | 950 | –
323 K, 18900 kPa | 960 | –

318 K
Details | viscosity [mPa·s]
w1 = 0.18 | 0.095
w1 = 0.25 | 0.103
